Results taken from PMC11904948, “Peptide‐Drug Conjugate for Therapeutic Reprogramming of Tumor‐Associated Macrophages in Breast Cancer” (Advanced Science, 2025).

System: YAP
Assay: YAP immunofluorescence in BMDM
Format: cell-based, mouse
Details: day 5 BMDM, 10 µM 4 h, washed, confocal microscopy 3 h later
Text: We speculated that the observed in vivo effect of MACTIDE‐V could be mediated by the modulation of macrophage phenotype elicited by Verteporfin, a drug that inhibits the co‐transcription factor Yes Associated Protein (YAP), and prevents the anti‐inflammatory shift in macrophages.^[ [26] ^] We therefore analyzed the effect of MACTIDE‐V on YAP localization and phenotypic changes in mouse bone marrow‐derived macrophages (BMDM) in vitro. We first treated BMDM with MACTIDE‐V, MACTIDE, or CtrlPep‐V and evaluated changes in YAP localization 3 h later using confocal microscopy. […] These observations are consistent with the reported effect of Verteporfin sequestering YAP in the cytoplasm.^[ [27], [28] ^]
Figure 6 MACTIDE‐V promotes a YAP‐ mediated anti‐ tumoral switch in bone marrow‐derived macrophages. Day 5 BMDM were incubated for 4 h with 10 µM conjugates, washed, and followed‐up in media. A) YAP Immunofluorescence (shown in red) was analyzed 3 h after treatment and B) phagocytosis of fluorescent E. coli particles at 48 h follow‐up. C) Flow cytometry on BMDM 48 h after treatment. Left panel, GeoMean of MHC II, CD206, CD80, and PD‐L1 in Balb/c BMDM. Median ± interquartile range. […] D) Heatmap of the mRNA expression of genes involved in the functional activation of BMDM, YAP signaling, and adhesion, measured by real‐time PCR 48 h after treatment in BALB/c BMDM. n = 3 independent experiments. […]

Substance	YAP localization
Vert‐Ahx‐G(CTKSIPPIC)SPGAK‐OH (disulfide) [MACTIDE‐V]	excluded YAP from the nucleus
Vert‐Ahx‐AKPCGS‐OH [CtrlPep‐V, reference compound]	uniformly spread throughout the cell
